Data as given in US20160082036A1, “HYDROXYALKYL STARCH FOR THE TREATMENT OF CANCERS BY REDUCTION OF TUMOR GROWTH RATES” (Fresenius Kabi Deutschland GmbH, priority 2012, published 2016).
Entries after “also recorded” stand apart in the source; their conditions may differ.

Assays:
[1] = tested on: human prostate carcinoma cell line PC-3; assay: Example 4: PC-3 xenograft tumor growth in nude mice; format: in vivo; conditions: 3 week observation period; FIG. 5
Method: In another study which was performed in analogy to the study described above, the effect of “Voluven 10%” was tested on a different cancer cell line, i.e. on prostate cancer cell line PC3.
The rapidly growing human prostate carcinoma cell line PC-3 was used as xenograft tumor model in nude mice to test the efficacy of Voluven® 10% on reduction of tumour growth rates. Paclitaxel was employed as positive control and saline as negative control.
• Strain: NMRI nude (homozygous)-Rj:NMRI-nu • Sex: Female • Supplier: Elevage Janvier, Route des Chènes Secs, 53940 Le Genest St. Isle, France • Health status: SPF • Age at delivery: 5-6 weeks • Acclimatization: At least 6 days […]
Tumor measurement: The tumor growth was measured three times a week (e.g. Monday, Wednesday, and Friday) beginning with study day 3 (tumor measurable at size approx. 3 mm in diameter). Tumor volumes were calculated according to V=(length×(width)^2)/2. […]
To prepare the paclitaxel solution at a concentration of 2.5 mg/ml the paclitaxel stock solution (6 mg/ml) was diluted with 0.9% isotonic saline. […] Saline and Voluven® 10% were provided as ready-to-use formulations. […]
Statistical analyses of data were performed for each group separately. Group medians were calculated for body weights and tumor measurements for each investigation time. […] For the evaluation of tumor volume/area and T/C values were calculated using Microsoft Excel 7.0.

[2] = Example 6.1: body weight of LXFL 529 tumor-bearing mice; format: in vivo, NMRI nu/nu mice; conditions: FIG. 14
Method: The application volume was 20 ml/kg mouse body weight for saline and Voluven® 10% and 10 ml/kg of the 1 mg/ml solution for Everolimus (administered final dose 10 mg/kg). The route of administration was by i.v. injection into the tail vein for saline and Voluven® 10%. 10 mg/kg of body weight Everolimus was administered p.o.

[3] = Example 6.2: body weight of LXFE 397 tumor-bearing mice; format: in vivo, NMRI nu/nu mice; conditions: FIG. 16
Method: The application volume was 20 ml/kg mouse body weight for saline and Voluven® 10% (i.v.) and 100 mg/kg for Capecitabine (p.o.).

## CC(=O)O[C@H]1C(=O)[C@@]2(C)[C@H]([C@H](OC(=O)c3ccccc3)[C@]3(O)C[C@H](OC(=O)[C@H](O)[C@@H](NC(=O)c4ccccc4)c4ccccc4)C(C)=C1C3(C)C)[C@]1(OC(C)=O)CO[C@@H]1C[C@@H]2O [paclitaxel, Paclitaxel]
[1]
  effect on tumor volume (in words): stable tumour size or reduced the tumor volume; also recorded: decrease of the initial tumor volume

## CO[C@H]1C[C@@H]2CC[C@@H](C)[C@@](O)(O2)C(=O)C(=O)N2CCCC[C@H]2C(=O)O[C@H]([C@H](C)C[C@@H]2CC[C@@H](OCCO)[C@H](OC)C2)CC(=O)[C@H](C)/C=C(\C)[C@@H](O)[C@@H](OC)C(=O)[C@H](C)C[C@H](C)/C=C/C=C/C=C/1C [Everolimus]
[2]
  body weight (in words): slight reduction

## CCCCCOC(=O)Nc1nc(=O)n([C@@H]2O[C@H](C)[C@@H](O)[C@H]2O)cc1F [Capecitabine]
[3]
  body weight (in words): not reduced
